Patent US20230248723A1, “PYRROLO[2,3-B]PYRAZINE COMPOUNDS AS CCCDNA INHIBITORS FOR THE TREATMENT OF HEPATITIS B VIRUS (HBV) INFECTION” (Hoffmann-La Roche Inc., priority 2017, published 2023)
Like-named read-outs stand apart in the source and are kept apart here.

Key:
pgRNA = test: pgRNA, HBV-infected HepaRG; format: cell-based; conditions: Hepatitis B virus
Method: (§1) Following 4 day of maturation with 1 μM MB-1, HLC were incubated with HBV (purified from CHB individuals) at multiplicity of infection (MOI) 10-40 without PEG for 24 hr; virus inoculum was removed the following day. HBV infection in PHH was performed at MOI 40+4% PEG. Compound treatment in HLC and PHH was started at day 3 post infection. Compound (in powder) was dissolved in DMSO; the final concentration of DMSO added to cells is 1%. Fresh compound was replenished every 2 day until cells were harvested at day 10 (PHH), or day 14 (HLC). Compound effect on HBV and cellular toxicity was measured by multiplex assay (HBsAg, HBeAg, albumin), branched DNA (pgRNA), or digital PCR (cccDNA) and depicted as % of inhibition compared to DMSO control. Graphs were prepared using Spotfire software.
Levels of pgRNA in infected cells (96-well plate) were measured using QuantiGene Singleplex 2.0 assay (Affymetrix), a hybridization-based assay that utilizes the xMAP™ Luminex magnetic beads and branched DNA (bDNA) signal amplification technology. The assay is performed in 96-well plate according to manufacturer's recommendation. Briefly, cells were lysed and lysates were incubated with HBV probe sets panel at 50-55° C. for 30 min then stored at −80° C. Signal amplification is achieved via sequential hybridization of PreAmplifier, Amplifier, and Label Probe. After adding Streptavidin phycoerythrin (SAPE) substrate, the signal is read using a FlexMap 3D (Luminex) instrument.
Most of HBV in vitro studies, including evaluation of compound antiviral activity, are performed in hepatoma cell lines (HepaRG or HepG2-NTCP) infected with cell culture-derived HBV (e.g. HepG2.2.15-derived virus, GT D). As evaluation of cccDNA destabilizers was performed with patient-derived HBV GT D in PHH (see FIGS. 3F and 4A-4B), the inventors asked whether compound potency would be similar when tested against patient-derived HBV isolates from other GTs, or cell culture-derived virus (HepG2.2.15). To address the first question, PHH (in 384-well plate) were infected with four clinical HBV isolates (GT A-D, at MOI 40). At day 3 pi, cells were treated with compound 7, or DMSO, every other day until harvested and analysed at day 10 pi. Several observations are noteworthy. First, clinical HBV isolates across GTs varied in their replication capacity in PHH; as noted earlier in HLC (see FIG. 21) and also by others (Mabit et al., 1996; Sozzi et al, 2016). […] For each isolate, the amounts of secreted viral antigens are in close agreement with their cccDNA levels; thus, GT A isolate had the highest amount of cccDNA (˜11,000 copies/well), followed by GT C, B, and D (see FIG. 5B). […] Next, the inventors evaluated whether antiviral activity of compound 7 could be affected by the source of virus inoculum. […]

[1] = system: albumin (secreted, cellular toxicity marker); test: Albumin (in vitro tox), HepaRG; format: cell-based; conditions: human
Method: as §1
A custom, Luminex-based multiplex assay that simultaneously measured HBeAg, albumin, and HBsAg was developed by Radix BioSolutions (Georgetown, Tex.). This is a sandwich immunoassay; each capture antibody was coupled with xMAP™ Luminex magnetic beads. […] Samples were read on FlexMAP 3D (Luminex) and analyzed by Genedata software.
Most of HBV in vitro studies, including evaluation of compound antiviral activity, are performed in hepatoma cell lines (HepaRG or HepG2-NTCP) infected with cell culture-derived HBV (e.g. HepG2.2.15-derived virus, GT D). […] To address the first question, PHH (in 384-well plate) were infected with four clinical HBV isolates (GT A-D, at MOI 40). […] Most HBV in vitro studies are performed in hepatoma cell lines (e.g. HepaRG or HepG2 cell lines) utilizing HepG2-derived HBV as the virus inoculum.

[2] = system: iPS-derived hepatocyte-like cells (HLC); test: HBV infection of MB-1-treated HLC (HBsAg released into culture medium); format: cell-based, human

SMILES: O=C(NC(CO)CO)c1c[nH]c2ncc(C3CC3)nc12 [compound 7]
- IC50 (pgRNA; HepG2.2.15-derived HBV GT D, MOI 40, read-out: pgRNA IC50 (μM) Median): 16.8 µM
- IC50 (pgRNA; HepG2.2.15-derived HBV GT D, MOI 125, read-out: pgRNA IC50 (μM) Median): 26.6 µM
- IC50 (pgRNA; patient-derived HBV GT D, MOI 40, read-out: pgRNA IC50 (μM) Median): 1.93 µM
- IC50 (pgRNA; patient-derived HBV GT D, MOI 125, read-out: pgRNA IC50 (μM) Median): 4.62 µM
- IC50 ([1]; HepG2.2.15-derived HBV GT D, MOI 40, read-out: In vitro tox albumin IC50 (μM) Median): 24.9 µM
- IC50 ([1]; HepG2.2.15-derived HBV GT D, MOI 125, read-out: In vitro tox albumin IC50 (μM) Median): 26.6 µM
- IC50 ([1]; HepaRG cells infected with HBV, patient-derived HBV GT D, MOI 40, read-out: In vitro tox albumin IC50 (μM) Median): 23.4 µM
- IC50 ([1]; HepaRG cells infected with HBV, patient-derived HBV GT D, MOI 125, read-out: In vitro tox albumin IC50 (μM) Median): 25.7 µM

SMILES: O=C(NCc1cccc(F)c1)c1cccc2[nH]c(-c3c(NC[C@@H](O)c4ccccc4)cc[nH]c3=O)nc12 [MB-1]
- peak of HBsAg ([2]; HLC treated with MB-1 1 μM for 4 days, patient-derived HBV MOI 10, day 11 pi): ~16 ng/mL
- HBsAg ([2]; HLC with MB-1, HepG2.2.15-derived HBV, MOI 10, day 1 pi): 0.05 ± 0.01 ng/mL
- HBsAg ([2]; HLC with MB-1, HepG2.2.15-derived HBV, MOI 10, day 3 pi): 0.06 ± 0.01 ng/mL
- HBsAg ([2]; HLC with MB-1, HepG2.2.15-derived HBV, MOI 10, day 8 pi): 0.08 ± 0.01 ng/mL
- HBsAg ([2]; HLC with MB-1, HepG2.2.15-derived HBV, MOI 10, day 11 pi): 0.10 ± 0.01 ng/mL
- HBsAg ([2]; HLC with MB-1, HepG2.2.15-derived HBV, MOI 10, day 14 pi): 0.09 ± 0.01 ng/mL
- HBsAg ([2]; HLC with MB-1, HepG2.2.15-derived HBV, MOI 100, day 1 pi): 414.13 ± 1.68 ng/mL
- HBsAg ([2]; HLC with MB-1, HepG2.2.15-derived HBV, MOI 100, day 3 pi): 8.12 ± 2.21 ng/mL
- HBsAg ([2]; HLC with MB-1, HepG2.2.15-derived HBV, MOI 100, day 8 pi): 0.36 ± 0.11 ng/mL
- HBsAg ([2]; HLC with MB-1, HepG2.2.15-derived HBV, MOI 100, day 11 pi): 0.73 ± 0.20 ng/mL
- HBsAg ([2]; HLC with MB-1, HepG2.2.15-derived HBV, MOI 100, day 14 pi): 0.43 ± 0.18 ng/mL
- HBsAg ([2]; HLC with MB-1, patient-derived HBV, MOI 10, day 1 pi): 0.34 ± 0.06 ng/mL
- HBsAg ([2]; HLC with MB-1, patient-derived HBV, MOI 10, day 3 pi): 0.93 ± 0.25 ng/mL
- HBsAg ([2]; HLC with MB-1, patient-derived HBV, MOI 10, day 8 pi): 5.87 ± 1.34 ng/mL
- HBsAg ([2]; HLC with MB-1, patient-derived HBV, MOI 10, day 11 pi): 14.31 ± 2.02 ng/mL
- HBsAg ([2]; HLC with MB-1, patient-derived HBV, MOI 10, day 14 pi): 10.39 ± 1.46 ng/mL
